The values that follow are results of earlier work, collected in patent EP4506356A1, “METHANOL-INDUCIBLE PROMOTER AND USE THEREOF IN PREPARATION OF L-ALANYL-L-GLUTAMINE” (Wuhan Grand Hoyo Co., Ltd., priority 2022, dated 2023).

≈ marks a conversion by molar mass, not a printed value. Residues, ends and D or L forms follow the SMILES beside them.

On to `C[C@H](N)C(=O)N[C@@H](CCC(N)=O)C(=O)O` [Alanyl-glutamine dipeptide, L-alanyl-L-glutamine] (H-Ala-Gln-OH), for which the water solubility was 586 mg/mL (≈ 2700 mM).
